Experimental data as given in patent US20210063420A1, “Human Neural Organoid Platform for Detecting Drugs of Abuse Disorder Susceptibility and Therapeutic Countermeasure and Non-Addictive Pain Medication Development” (Rene Anand, priority 2019, published 2021).

System: human iPSC-derived brain organoids
Procedure: All cpm data are normalized data and the reads are a direct representation of the abundance of the RNA for each gene.
Transcriptomic data from these neural organoids were obtained. […] Detailed data analysis using Gene Card and Pubmed data bases were performed.

CN1CCCC1c1cccnc1 (stereo not drawn) [nicotine]
expression of a set of genes for proteins involved in the development of midbrain dopaminergic neurons (VTA and SNpc) (chronic nicotine exposure of human iPSC-derived brain organoids): increases the expression
change in gene expression versus 0 (control) (exposure for 4 weeks to nicotine at 50 nanomolar, 500 nanomolar and 1 micromolar in the growth media, identified responsive genes): greater than 1.4 fold
expression of a subset of genes (Nurr 1, Lmx1a, Lmx1b, Neurog2, OTX2, Nolz1, NDNF) (human neural organoids, preliminary data): upregulated
